PMC8037669, “Discovery of Novel Sultone Fused Berberine Derivatives as Promising Tdp1 Inhibitors” (Molecules, 2021)
Where “and” joins values, the source holds several entries; their conditions need not be identical. Equal values may be shown once. Entries after “also recorded” stand apart in the source; their conditions may differ. Read-outs that look alike come from different tables or passages of the source.

Key:
[1] = target: T1, tyrosyl-DNA phosphodiesterase 1 (Tdp1) (Homo sapiens, UniProt Q9NUW8); experiment: Tdp1 activity, fluorescent oligonucleotide biosensor (FAM/BHQ1) assay; format: biochemical; conditions: purified Tdp1 1.5 nM, 50 nM biosensor; read-out: Tdp1 inhibiting activity IC50
T1 construct: Purified Tdp1 (1.5 nM) triggered the reaction
Description: In this work, newly synthesized sultones were tested for their inhibition of Tdp1. Tdp1 activity was measured using a fluorescent biosensor as previously described. The biosensor is an oligonucleotide with a fluorophore (FAM) at the 5′-end and a fluorescence quencher (BHQ1) at the 3′-end. Due to the activity of the enzyme, the quencher is removed, which leads to an increase in the fluorescence intensity. Inhibitors prevent the removal of the quencher, thus reducing the fluorescence intensity.
Tdp1 activity was detected, as described in the work in Reference, and consists of fluorescence intensity measurement in a reaction of quencher removal from a fluorophore quencher–coupled DNA oligonucleotide catalyzed by Tdp1. The reaction was carried out at different concentrations of inhibitors (the control samples contained 1% of DMSO). The reaction mixtures contained Tdp1 buffer (50 mM Tris-HCl pH 8.0, 50 mM NaCl, and 7 mM β-mercaptoethanol), 50 nM biosensor, and an inhibitor being tested. Purified Tdp1 (1.5 nM) triggered the reaction. The biosensor (5′-[FAM] AAC GTC AGGGTC TTC C [BHQ]-3′) was synthesized in the Laboratory of Biomedical Chemistry at the Institute of Chemical Biology and Fundamental Medicine (Novosibirsk, Russia).
The reactions were incubated on a POLARstar OPTIMA fluorimeter (BMG LABTECH, GmbH, Ortenberg, Germany) to measure fluorescence every 55 s (ex. 485/em. 520 nm) during the linear phase (here, data from minute 0 to minute 8). The values of IC50 were determined using a six-point concentration response curve in a minimum of three independent experiments and were calculated using MARS Data Analysis 2.0 (BMG LABTECH, Ortenberg, Germany).

[2] = Cytotoxicity, EZ4U Cell Proliferation and Cytotoxicity Assay; format: cell-based, human; conditions: human
Description: (§1) All compounds have no intrinsic toxicity in the concentration range up to 100 μM (Figure 8) in HeLa cells, with the exception of 16a and berberine, which are toxic at concentrations above 20 μM. 16a is slightly toxic (CC50 ~ 100 μM) and differs from non-toxic 10a in the presence of a double bond in the sultone cycle. The original berberine 1 is toxic to HeLa cells with a cytotoxic concentration (CC50) of 20 μM, which is consistent with the literature data.
(§2) Cytotoxicity of the compounds to HeLa (human cervical cancer) cell line was examined using the EZ4U Cell Proliferation and Cytotoxicity Assay (Biomedica, Vienna, Austria), according to the manufacturer’s protocols. The cells were grown in Iscove’s modified Dulbecco’s medium (IMDM) with 40 μg/mL gentamicin, 50 IU/mL penicillin, 50 μg/mL streptomycin (MP Biomedicals, Waltham, MA, USA), and 10% of fetal bovine serum (Biolot, Saint Petersburg, Russia) in a 5% CO2 atmosphere. After the formation of a 30–50%-monolayer, the tested compounds were added to the medium. The volume of the added reagents was 1/100 of the total volume of the culture medium, and the amount of DMSO was 1% of the final volume. Control cells were grown in the presence of 1% DMSO. The cell culture was monitored for 3 days.

HeLa cells [3] = experiment: as above; format: cell-based, human
Description: as §1, §2

HeLa cells [4] = experiment: Sensitization of cells to topotecan cytotoxicity by Tdp1 inhibitors; format: cell-based, human; conditions: inhibitor at 20 μM, varied topotecan concentrations; Mann-Whitney U-test, p = 0.05
Description: In this work, we also tested the ability of the berberrubine sultones to sensitize cells to the action of topotecan. For this, we chose a non-toxic concentration of Tdp1 inhibitors at 20 μM and varied the concentrations of topotecan.
as §2

[5] = target: T1, tyrosyl-DNA phosphodiesterase 1 (Tdp1); conditions: previous work of the group; read-out: Tdp1 IC50 of previously synthesized berberine derivatives; cited from earlier work

T1 sequence (Q9NUW8 whole entry): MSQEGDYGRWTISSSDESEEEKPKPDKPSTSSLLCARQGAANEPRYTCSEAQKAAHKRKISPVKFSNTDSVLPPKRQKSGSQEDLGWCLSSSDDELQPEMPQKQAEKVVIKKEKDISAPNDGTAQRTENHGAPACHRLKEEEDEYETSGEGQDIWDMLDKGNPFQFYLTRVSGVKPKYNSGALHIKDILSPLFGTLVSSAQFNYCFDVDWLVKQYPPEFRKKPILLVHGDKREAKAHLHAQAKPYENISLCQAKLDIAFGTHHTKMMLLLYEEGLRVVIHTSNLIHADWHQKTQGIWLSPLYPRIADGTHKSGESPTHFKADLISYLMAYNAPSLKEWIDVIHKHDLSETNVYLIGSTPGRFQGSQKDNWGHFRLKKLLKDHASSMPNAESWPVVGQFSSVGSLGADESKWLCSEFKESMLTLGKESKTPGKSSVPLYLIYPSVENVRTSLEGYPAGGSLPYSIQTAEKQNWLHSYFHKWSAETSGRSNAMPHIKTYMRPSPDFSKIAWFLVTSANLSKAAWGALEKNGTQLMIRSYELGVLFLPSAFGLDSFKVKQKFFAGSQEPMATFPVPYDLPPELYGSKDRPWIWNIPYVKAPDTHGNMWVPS

| Compound | IC50 [1] | CC50 at 3 days [2] | further results |
| --- | --- | --- | --- |
| COc1ccc2c3c1OS(=O)(=O)CC3N1CCc3cc4c(cc3C1=C2)OCO4 (stereo not drawn) [10a, 19-Methoxy-8,10,21-trioxa-22λ⁶-thia-2-azahexacyclo[14.7.1.0^2,¹⁴.0⁵,¹^3.0⁷,¹¹.0^2⁰,^2⁴]tetracosa-5,7(11),12,14,16,18,20(24)-heptaene-22,22-dione] | 1530 ± 180 nM | > 100000 nM | – |
| COc1ccc2c3c1OS(=O)(=O)C(C)C3N1CCc3cc4c(cc3C1=C2)OCO4 (stereo not drawn) [10b, 19-Methoxy-23-methyl-8,10,21-trioxa-22λ⁶-thia-2-azahexacyclo[14.7.1.0^2,¹⁴.0⁵,¹^3.0⁷,¹¹.0^2⁰,^2⁴]tetracosa-5,7(11),12,14,16,18,20(24)-heptaene-22,22-dione] | 2130 ± 160 nM | > 100000 nM | – |
| CCC1C2c3c(ccc(OC)c3OS1(=O)=O)C=C1c3cc4c(cc3CCN12)OCO4 (stereo not drawn) [10c, 23-Ethyl-19-methoxy-8,10,21-trioxa-22λ⁶-thia-2-azahexacyclo[14.7.1.0^2,¹⁴.0⁵,¹^3.0⁷,¹¹.0^2⁰,^2⁴]tetracosa-5,7(11),12,14,16,18,20(24)-heptaene-22,22-dione] | 5500 ± 100 nM | > 100000 nM | – |
| CCCC1C2c3c(ccc(OC)c3OS1(=O)=O)C=C1c3cc4c(cc3CCN12)OCO4 (stereo not drawn) [10d, 19-Methoxy-23-propyl-8,10,21-trioxa-22λ⁶-thia-2-azahexacyclo[14.7.1.0^2,¹⁴.0⁵,¹^3.0⁷,¹¹.0^2⁰,^2⁴]tetracosa-5,7(11),12,14,16,18,20(24)-heptaene-22,22-dione] | 1120 ± 180 nM | > 100000 nM | – |
| COc1ccc2c3c1OS(=O)(=O)C=C3N1CCc3cc4c(cc3C1=C2)OCO4 [16a, 19-Methoxy-8,10,21-trioxa-22λ⁶-thia-2-azahexacyclo[14.7.1.0^2,¹⁴.0⁵,¹^3.0⁷,¹¹.0^2⁰,^2⁴]tetracosa-1(23),5,7(11),12,14,16,18,20(24)-octaene-22,22-dione] | 2500 ± 400 nM | ~100000 nM | concentration above which toxic to HeLa cells (HeLa cells [3]; human, 3 days): above 20 μM |
| COc1cc(Br)c2c3c1OS(=O)(=O)CC3N1CCc3cc4c(cc3C1=C2)OCO4 (stereo not drawn) [18a, 17-Bromo-19-methoxy-8,10,21-trioxa-22λ⁶-thia-2-azahexacyclo[14.7.1.0^2,¹⁴.0⁵,¹^3.0⁷,¹¹.0^2⁰,^2⁴]tetracosa-5,7(11),12,14,16,18,20(24)-heptaene-22,22-dione] | 925 nM and 920 nM | > 100000 nM | – |
| COc1cc(Br)c2c3c1OS(=O)(=O)C(C)C3N1CCc3cc4c(cc3C1=C2)OCO4 (stereo not drawn) [18b, 17-Bromo-19-methoxy-23-methyl-8,10,21-trioxa-22λ⁶-thia-2-azahexacyclo[14.7.1.0^2,¹⁴.0⁵,¹^3.0⁷,¹¹.0^2⁰,^2⁴]tetracosa-5,7(11),12,14,16,18,20(24)-heptaene-22,22-dione] | 1130 ± 200 nM | > 100000 nM | – |
| CCC1C2c3c(c(Br)cc(OC)c3OS1(=O)=O)C=C1c3cc4c(cc3CCN12)OCO4 (stereo not drawn) [18c, 17-Bromo-23-ethyl-19-methoxy-8,10,21-trioxa-22λ⁶-thia-2-azahexacyclo[14.7.1.0^2,¹⁴.0⁵,¹^3.0⁷,¹¹.0^2⁰,^2⁴]tetracosa-5,7(11),12,14,16,18,20(24)-heptaene-22,22-dione] | 560 ± 20 nM | > 100000 nM | sensitizing effect on topotecan cytotoxicity (HeLa cells [4]): most pronounced and statistically significant; also recorded: enhances the cytotoxic effect of topotecan |
| CCCC1C2c3c(c(Br)cc(OC)c3OS1(=O)=O)C=C1c3cc4c(cc3CCN12)OCO4 (stereo not drawn) [18d, 17-Bromo-19-methoxy-23-propyl-8,10,21-trioxa-22λ⁶-thia-2-azahexacyclo[14.7.1.0^2,¹⁴.0⁵,¹^3.0⁷,¹¹.0^2⁰,^2⁴]tetracosa-5,7(11),12,14,16,18,20(24)-heptaene-22,22-dione] | 780 ± 30 nM | > 100000 nM | – |
| COc1ccc2c(c1OS(C)(=O)=O)CN1CCc3cc4c(cc3C1C2)OCO4 (stereo not drawn) [21a] | – | – | IC50 [5]: > 15000 nM |
| CCS(=O)(=O)Oc1c(OC)ccc2c1CN1CCc3cc4c(cc3C1C2)OCO4 (stereo not drawn) [21b] | – | – | IC50 [5]: > 15000 nM |
| COc1ccc2cc3[n+](cc2c1OC)CCc1cc2c(cc1-3)OCO2 [berberine 1, berberine] | – | – | concentration above which toxic to HeLa cells (HeLa cells [3]; HeLa cells): above 20 μM; CC50 at 3 days ([2]; HeLa cells, EZ4U test, 3 days, read-out: CC50 HeLa): 20000 nM |
